Assay results reported in US20060194698A1, “Use of herbs as a delivery system for bioactive phytochemicals” (priority 2003, published 2006).

Test system: Sclerotinia
Assay: Essential oil components / ground herbage against Sclerotinia and its sclerotia
Format: cell-based
Details: pure essential oil component

Structure (SMILES) | activity against the sclerotia of Sclerotinia | growth of Sclerotinia
CC(C)=CCC/C(C)=C/CO [geraniol] | inhibitory activity | completely inhibit growth
Cc1ccc(C(C)C)c(O)c1 [thymol] | inhibitory activity | completely inhibit growth
Cc1ccc(C(C)C)cc1O [carvacrol] | inhibitory activity | completely inhibit growth

Test system: Alternaria
Assay: Essential oil components against Alternaria growth (saturated cotton swab suspended above culture)
Format: cell-based
Details: pure essential oil component
Description: Antifungal activity of the essential oil components against Rhizoctonia and Pythium will be tested by means previously used to evaluate Alternaria growth. Briefly, a cotton swab saturated with the oil is suspended above a culture of the test pathogen. Fungal dry weight is then determined. Appropriate controls are performed.

Structure (SMILES) | growth of Alternaria
CC(C)=CCC/C(C)=C/CO [geraniol] | completely inhibit growth
Cc1ccc(C(C)C)c(O)c1 [thymol] | completely inhibit growth
C=C(C)[C@H]1CC=C(C)CC1 [limonene] | inhibit the growth of Alternaria, but not as effectively as cymene
Cc1ccc(C(C)C)cc1 [cymene, p-cymene] | reduce the growth
Cc1ccc(C(C)C)cc1O [carvacrol] | completely inhibit growth
